This note sets out measurements from ChEMBL document CHEMBL2074312, “Involvement of multispecific organic anion transporter, Oatp14 (Slc21a14), in the transport of thyroxine across the blood-brain barrier” (Endocrinology, 2004).

A value given as a limit tells only on which side of the number the result lay.

The target in the assay is Solute carrier organic anion transporter family member 1C1. Briefly: TP_TRANSPORTER: inhibition of L-T4 uptake in Oatp14-expressing HEK293 cells. Format: functional, cell-based.
Usually Ki stands for a dissociation constant, usually derived from enzyme kinetics or from competition with a known ligand. Read a low Ki as a stronger hold on the target. In turn, `N[C@H](Cc1cc(I)c(Oc2cc(I)c(O)c(I)c2)c(I)c1)C(=O)O` [DEXTROTHYROXINE] registered a Ki of 0.27 µM. In other words, the sub-micromolar range.
The molecule `C[C@]12CC[C@@H]3c4ccc(O)cc4CC[C@H]3[C@@H]1CC[C@@H]2O[C@@H]1O[C@H](C(=O)O)[C@@H](O)[C@H](O)[C@H]1O` [ESTRADIOL 17B GLUCURONIDE] yielded a Ki above 100 µM.
Consider `C[C@]12CC[C@@H]3c4ccc(OS(=O)(=O)O)cc4CC[C@H]3[C@@H]1CCC2=O` [ESTRONE SULFURIC ACID], for which the Ki came to 53.1 µM.
In turn, `N[C@@H](Cc1cc(I)c(Oc2ccc(O)c(I)c2)c(I)c1)C(=O)O` [LIOTHYRONINE] gave a Ki of 24.2 µM.
`CCCN(CCC)S(=O)(=O)c1ccc(C(=O)O)cc1` [PROBENECID] registered a Ki of 293 µM.
The value for `N[C@@H](Cc1ccc(Oc2cc(I)c(O)c(I)c2)c(I)c1)C(=O)O` [REVERSE TRIIODOTHYRONINE] was 0.91 µM.
With `O=C(O)Cc1cc(I)c(Oc2ccc(O)c(I)c2)c(I)c1` [TIRATRICOL] the figure was 2.15 µM.
